The record followed here is patent US20190002436A1, “RESPIRATORY SYNCYTIAL VIRUS INHIBITORS” (MEDIVIR AB, priority 2015, published 2019).

One may read the EC50 as the concentration at which the effect is half-maximal.

The subject of the first assay is RSV (Long). Nature of the assay: RSV cytopathic effect (CPE)-based viral replication assay. In kind it is cell-based, respiratory syncytial virus (RSV). To be noted: HEp-2 cells infected with RSV Long at MOI 0.015; 3 days at 37° C.; cell viability by CellTiter-Glo luminescence; read-out: EC50 (nm). A digest of the protocol: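 HEp-2 cells, 2,500 per well in DMEM with 2% heat-inactivated FBS, treated with 10-point compound dilutions and infected with RSV Long at MOI 0.015. After 3 days at 37 °C, 5% CO2, viability read by CellTiter-Glo luminescence; EC50 derived from CPE data.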
(In general: Cytopathic effects are the visible damage that an infection or toxin causes in cultured cells.)
Turning to `O=C1N(Cc2ncc3ccccc3c2-c2ccc(F)nc2)c2ccccc2C12CC(NCCF)C2` (single isomer, unassigned) [Example 87-2, 3-((2-fluoroethyl)amino)-1′-((4-(6-fluoropyridin-3-yl)isoquinolin-3-yl)methyl)spiro[cyclobutane-1,3′-indolin]-2′-one], the EC50 worked out at 4.6 nM.

Still in this assay, the particulars now being: human respiratory syncytial virus, HEp-2, 72 h, HEp-2 cells infected with RSV Long at MOI 0.015; 3 days at 37° C.; cell viability by CellTiter-Glo luminescence; read-out: EC50 (nm).
Take `NCCCC(=O)N1CCC2(CC1)C(=O)N(Cc1ncc3ccccc3c1-c1cccnc1)c1cnccc12` [Example 142, 1-(4-aminobutanoyl)-1′-((4-(pyridin-3-yl)isoquinolin-3-yl)methyl)spiro[piperidine-4,3′-pyrrolo[2,3-c]pyridin]-2′(1′H)-one]: the EC50 came to 5.8 nM. Still for that read-out and setting: the value for `CC(C)(C)NC(=O)N1CC2(C1)C(=O)N(Cc1ncc3ccccc3c1-c1ccc(C#N)nc1)c1ccccc12` [Example 81] was 1.4 nM. Same read-out and setting: for `CS(=O)(=O)Nc1ccc(-c2c(CN3C(=O)C4(CN(C(N)=O)C4)c4ccccc43)ncc3ccccc23)cc1` [Example 117, 1′-((4-(4-(methylsulfonamido)phenyl)isoquinolin-3-yl)methyl)-2′-oxospiro[azetidine-3,3′-indoline]-1-carboxamide] the value was 0.75 nM. Take `NC1(C(=O)N2CCC3(CC2)C(=O)N(Cc2ncc4ccccc4c2-c2ncco2)c2cnccc23)CC1` [Example 2021]: the EC50 came out at 690 nM. On the same count and under the same terms, for `CNC1(C(=O)N2CCC3(CC2)C(=O)N(Cc2ncc4ccccc4c2-c2ccc(C(=O)NC4CC4)nc2)c2cnccc23)CC1` [Example 109, N-cyclopropyl-5-(3-((1-(1-(methylamino)cyclopropanecarbonyl)-2′-oxospiro[piperidine-4,3′-pyrrolo[2,3-c]pyridin]-1′(2′H)-yl)methyl)isoquinolin-4-yl)picolinamide] the value was 3.8 nM; for `CS(=O)(=O)N1CC2(C1)C(=O)N(Cc1ncc3ccccc3c1-c1cc(F)cc(F)c1)c1ccccc12` [Example 72], 5.6 nM. On the same count and under the same terms, for `COC(=O)N1CCC(n2c(=O)n(Cc3ncc4cccc(F)c4c3CCCCO)c3cnccc32)CC1` [Example 30, Methyl 4-(3-((5-fluoro-4-(4-hydroxybutyl)isoquinolin-3-yl)methyl)-2-oxo-2,3-dihydro-1H-imidazo[4,5-c]pyridin-1-yl)piperidine-1-carboxylate] the value was 18 nM; for `O=C(N1CCOCC1)N1CC2(C1)C(=O)N(Cc1ncc3ccccc3c1-c1cccnc1)c1ccccc12` [Example 148b, 1-(morpholine-4-carbonyl)-1′-((4-(pyridin-3-yl)isoquinolin-3-yl)methyl)spiro[azetidine-3,3′-indolin]-2′-one], 7.2 nM; for `O=c1n(Cc2ncc3ccccc3c2CCCC(F)(F)F)c2cnccc2n1C1CC1` [Example 8e, 1-cyclopropyl-3-((4-(4,4,4-trifluorobutyl)isoquinolin-3-yl)methyl)-1H-imidazo[4,5-c]pyridin-2(3H)-one], 9 nM.

On to `COC(=O)N1CCC2(CC1)C(=O)N(Cc1ncc3ccccc3c1-c1ccc(C#N)cc1)c1cnccc12` [Example 12b, Methyl 1′-((4-(4-cyanophenyl)isoquinolin-3-yl)methyl)-2′-oxo-1′,2′-dihydrospiro[piperidine-4,3′-pyrrolo[2,3-c]pyridine]-1-carboxylate], for which the EC50 came to 10 nM. The same measure, in the same setting: the value for `CNC1(C(=O)N2CC3(C2)C(=O)N(Cc2ncc4ccccc4c2-c2ccc(S(N)(=O)=O)nc2)c2ccccc23)CC1` [Example 123b, 5-(3-((1-(1-(methylamino)cyclopropanecarbonyl)-2′-oxospiro[azetidine-3,3′-indolin]-1′-yl)methyl)isoquinolin-4-yl)pyridine-2-sulfonamide] was 15 nM; that for `NC(=O)N1CC2(C1)C(=O)N(Cc1ncc3ccccc3c1-c1cccnc1)c1ccccc12` [Example 131, 2′-Oxo-1′-((4-(pyridin-3-yl)isoquinolin-3-yl)methyl)spiro[azetidine-3,3′-indoline]-1-carboxamide] was 1.6 nM. Still for that read-out and setting: for `NC(c1ccc(-c2c(CN3C(=O)C4(CCN(C(=O)C5(N)CC5)CC4)c4ccncc43)ncc3ccccc23)cn1)C(F)(F)F` (stereo not shown) [Example 2042] the value was 22 nM; for `CS(=O)(=O)N1CC2(C1)C(=O)N(Cc1ncc3ccccc3c1-c1ccc(C#N)cc1)c1ccccc12` [Example 76], 2.5 nM; for `COC(=O)N1CC2(C1)C(=O)N(Cc1ncc3ccccc3c1-c1cncs1)c1ccccc12` [Example 100, Methyl 2′-oxo-1′-((4-(thiazol-5-yl)isoquinolin-3-yl)methyl)spiro[azetidine-3,3′-indoline]-1-carboxylate], 0.4 nM. On to `CS(=O)(=O)c1ccc(-c2c(Cn3c(=O)n(C4CC4)c4ccncc43)ncc3ccccc23)cn1` [Example 70c, 1-Cyclopropyl-3-((4-(6-(methylsulfonyl)pyridin-3-yl)isoquinolin-3-yl)methyl)-1H-imidazo[4,5-c]pyridin-2(3H)-one], for which the concentration for a half-maximal effect (EC50) was determined as 19 nM. The same measure, in the same setting: the value for `NC(=O)c1ccc(-c2c(CN3C(=O)C4(CCN(C(=O)[C@@H](N)CO)CC4)c4ccncc43)ncc3ccccc23)cn1` [Example 2032] was 2.7 nM; that for `CS(=O)(=O)N1CC2(C1)C(=O)N(Cc1ncc3ccccc3c1-c1ccc(C#N)nc1)c1ccccc12` [Example 45] was 3 nM; that for `COC(=O)N1CC2(C1)C(=O)N(Cc1ncc3ccccc3c1-c1ccccn1)c1ccccc12` [Example 102, Methyl 2′-oxo-1′-((4-(pyridin-2-yl)isoquinolin-3-yl)methyl)spiro[azetidine-3,3′-indoline]-1-carboxylate] was 194 nM.

Regarding `NCCCC(=O)N1CC2(C1)C(=O)N(Cc1ncc3ccccc3c1-c1cccnc1)c1ccccc12` [Example 151, 1-(4-Aminobutanoyl)-1′-((4-(pyridin-3-yl)isoquinolin-3-yl)methyl)spiro[azetidine-3,3′-indolin]-2′-one], the EC50 was 2.7 nM.

As for `NC1(C(=O)N2CCC3(CC2)C(=O)N(Cc2ncc4ccccc4c2-c2cn[nH]c2)c2cnccc23)CC1` [Example 2030], the EC50 amounted to 5.7 nM. On the same count and under the same terms, the value for `NCCC(=O)N1CCC2(CC1)C(=O)N(Cc1ncc3ccccc3c1-c1cccnc1)c1cnccc12` [Example 141, 1-(3-aminopropanoyl)-1′-((4-(pyridin-3-yl)isoquinolin-3-yl)methyl)spiro[piperidine-4,3′-pyrrolo[2,3-c]pyridin]-2′(1′H)-one] was 11 nM; that for `COC(=O)N1CC2(C1)C(=O)N(Cc1ncc3ccccc3c1-c1cnccn1)c1ccccc12` [Example 103, Methyl 2′-oxo-1′-((4-(pyrazin-2-yl)isoquinolin-3-yl)methyl)spiro[azetidine-3,3′-indoline]-1-carboxylate] was 18 nM. On the same count and under the same terms, the value for `COC(=O)N1CC2(C1)C(=O)N(Cc1ncc3ccccc3c1-c1ccc(NS(C)(=O)=O)nc1)c1ccccc12` [Example 134b, Methyl 1′-((4-(6-(methylsulfonamido)pyridin-3-yl)isoquinolin-3-yl)methyl)-2′-oxospiro[azetidine-3,3′-indoline]-1-carboxylate] was 0.55 nM; that for `CS(=O)(=O)Nc1cncc(-c2c(CN3C(=O)C4(CN(C(=O)C5(N)CC5)C4)c4ccccc43)ncc3ccccc23)c1` [Example 2006] was 26 nM. Still for that read-out and setting: the value for `CS(=O)(=O)N1CC2(C1)C(=O)N(Cc1ncc3ccccc3c1-c1cccnc1)c1ccccc12` [Example 154, 1-(Methylsulfonyl)-1′-((4-(pyridin-3-yl)isoquinolin-3-yl)methyl)spiro[azetidine-3,3′-indolin]-2′-one] was 1.4 nM.

Take `CC(=O)N1CCC2(CC1)C(=O)N(Cc1ncc3ccccc3c1-c1cccnc1)c1cnccc12` [Example 146b, 1-Acetyl-1′-((4-(pyridin-3-yl)isoquinolin-3-yl)methyl)spiro[piperidine-4,3′-pyrrolo[2,3-c]pyridin]-2′(1′H)-one]: the concentration giving a half-maximal response (EC50) was found to be 2.8 nM. The same measure, in the same setting: for `NC(=O)c1ccc(-c2c(CN3C(=O)C4(CCN(C(=O)[C@H]5CCCN5)CC4)c4ccncc43)ncc3ccccc23)cn1` [Example 2013] the value was 6.6 nM. The same measure, in the same setting: for `O=c1n(Cc2ncc3ccccc3c2-c2ccc(O)nc2)c2ccccc2n1C1CC1` [Example 88, 1-Cyclopropyl-3-((4-(6-hydroxypyridin-3-yl)isoquinolin-3-yl)methyl)-1H-benzo[d]imidazol-2(3H)-one] the value was 8.5 nM.

Take `N#Cc1ccc(-c2c(CN3C(=O)C4(CCN(C(=O)OCCO)CC4)c4ccncc43)ncc3ccccc23)cn1` [Example 68, 2-hydroxyethyl 1′-((4-(6-cyanopyridin-3-yl)isoquinolin-3-yl)methyl)-2′-oxo-1′,2′-dihydrospiro[piperidine-4,3′-pyrrolo[2,3-c]pyridine]-1-carboxylate]: the EC50 stood at 2.5 nM. Still for that read-out and setting: the value for `NC(=O)c1ccc(-c2c(CN3C(=O)C4(CN(C(=O)C5(N)CC5)C4)c4ccccc43)ncc3ccccc23)cn1` [Example 2008] was 15 nM; that for `CNC1(C(=O)N2CC3(C2)C(=O)N(Cc2ncc4ccccc4c2-c2ccc(C(N)=O)nc2)c2ccccc23)CC1` [Example 115c, 5-(3-((1-(1-(methylamino)cyclopropanecarbonyl)-2′-oxospiro[azetidine-3,3′-indolin]-1′-yl)methyl)isoquinolin-4-yl)picolinamide] was 15 nM.

The same assay, now with this note: human respiratory syncytial virus, HEp-2, 72 h, read-out: EC50 (nm).
Take `COC(=O)N1CCC2(CC1)C(=O)N(Cc1ncc3ccccc3c1-c1cccnc1)c1cnccc12` [Example 144, Methyl 2′-oxo-1′-((4-(pyridin-3-yl)isoquinolin-3-yl)methyl)-1′,2′-dihydrospiro[piperidine-4,3′-pyrrolo[2,3-c]pyridine]-1-carboxylate]: the EC50 came to 1.1 nM.
